Results as given in publication PMC12435401 (Chemistry & Biodiversity, 2025).

Molecular target: acetylcholinesterase (AChE) (Electrophorus electricus, UniProt O42275)
Experiment: Ellman's assay with AChE isolated from Electrophorus electricus
Type: biochemical

Sequence of acetylcholinesterase (AChE) (O42275 24-633): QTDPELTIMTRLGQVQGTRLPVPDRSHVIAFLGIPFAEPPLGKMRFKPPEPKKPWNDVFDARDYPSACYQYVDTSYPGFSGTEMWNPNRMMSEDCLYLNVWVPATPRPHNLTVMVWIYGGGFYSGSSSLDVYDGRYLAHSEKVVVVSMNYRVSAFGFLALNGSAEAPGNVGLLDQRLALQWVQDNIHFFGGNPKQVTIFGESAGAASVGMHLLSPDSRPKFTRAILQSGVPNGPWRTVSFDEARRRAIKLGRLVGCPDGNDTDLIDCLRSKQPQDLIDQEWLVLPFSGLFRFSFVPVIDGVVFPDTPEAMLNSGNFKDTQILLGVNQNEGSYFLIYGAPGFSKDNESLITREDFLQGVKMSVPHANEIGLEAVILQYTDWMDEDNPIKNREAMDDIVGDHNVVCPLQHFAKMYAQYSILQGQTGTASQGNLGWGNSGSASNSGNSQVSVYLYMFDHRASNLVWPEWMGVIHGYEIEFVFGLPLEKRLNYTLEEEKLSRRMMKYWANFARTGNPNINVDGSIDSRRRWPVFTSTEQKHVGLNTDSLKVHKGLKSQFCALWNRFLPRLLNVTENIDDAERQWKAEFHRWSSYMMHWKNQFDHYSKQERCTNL

C[C@@H]1CC(=O)O[C@H]2C[C@@]3(C)[C@@H]4CC[C@H]5C(C)(C)C(=O)CC[C@@]56C[C@@]46CC[C@]3(C)[C@@H]12 [compound 6]
IC50: 53.5 ± 2.53 µM
